Drawing on PubChem BioAssay AID330 (DTP/NCI, 2004), this text covers T/C for 21 compounds.

Where “and” joins values, the source holds several entries; their conditions need not be identical. Equal values may be shown once. Toxic doses and inconclusive results are not listed.

The test system of the experiment is P388 leukemia ip, CD2F1 mice, survival T/C. Kind of experiment: NCI In Vivo Anticancer Drug Screen. Data for tumor model P388 Leukemia (intraperitoneal) in CD2F1 (CDF1) mice. The following applies: endpoint: median survival time, higher = longer survival. In outline: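 Mice carrying the transplanted tumor received test compound or vehicle. Survival was recorded in each group, and the value is the treated-group measurement divided by that of the vehicle-treated control group.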

Setting [1] is: dose: 60.0 mg/kg/injection, schedule: Q01DX005 (ip), vehicle: saline with Tween-80.
Where [2] appears, read: dose: 50.0 mg/kg/injection, schedule: Q01DX009 (ip), vehicle: Klucel (hydroxypropylcellulose) (HPC).
[3] abbreviates: dose: 100.0 mg/kg/injection, schedule: Q01DX009 (ip), vehicle: Klucel (hydroxypropylcellulose) (HPC).
Where [4] appears, read: dose: 50.0 mg/kg/injection, schedule: Q01DX005 (ip), vehicle: saline with Tween-80.
Where [5] appears, read: dose: 100.0 mg/kg/injection, schedule: Q01DX005 (ip), vehicle: saline with Tween-80.
[6] abbreviates: dose: 200.0 mg/kg/injection, schedule: Q01DX005 (ip), vehicle: saline with Tween-80.
The mark [7] stands for this setting: dose: 200.0 mg/kg/injection, schedule: Q01DX009 (ip), vehicle: Klucel (hydroxypropylcellulose) (HPC).
[8] abbreviates: dose: 12.5 mg/kg/injection, schedule: Q01DX005 (ip), vehicle: Klucel (hydroxypropylcellulose) (HPC).
The mark [9] stands for this setting: dose: 25.0 mg/kg/injection, schedule: Q01DX005 (ip), vehicle: Klucel (hydroxypropylcellulose) (HPC).

On to `Cc1c2oc3c(C)ccc(C(=O)OCCN4CCOCC4)c3nc-2c(C(=O)OCCN2CCOCC2)c(N)c1=O`, for which the T/C by setting is: (dose: 3.13 mg/kg/injection, schedule: Q01DX009 (ip), vehicle: saline with Tween-80) 112 % of control; (dose: 6.25 mg/kg/injection, schedule: Q01DX009 (ip), vehicle: saline with Tween-80) 110 % of control; (dose: 12.5 mg/kg/injection, schedule: Q01DX009 (ip), vehicle: saline with Tween-80) 119 % of control; (dose: 25.0 mg/kg/injection, schedule: Q01DX009 (ip), vehicle: saline with Tween-80) 111 % of control.
For `Nn1c(-c2cnns2)n[nH]c1=S`, the T/C was 100 % of control (dose: 100.0 mg/kg/injection, schedule: Q01DX001 (ip), vehicle: Klucel (hydroxypropylcellulose) (HPC)); 100 % of control (dose: 200.0 mg/kg/injection, schedule: Q01DX001 (ip), vehicle: Klucel (hydroxypropylcellulose) (HPC)); 105 % of control (dose: 400.0 mg/kg/injection, schedule: Q01DX001 (ip), vehicle: Klucel (hydroxypropylcellulose) (HPC)).
Regarding `Cc1cccc2c1C(=O)N(CC[P+](c1ccccc1)(c1ccccc1)c1ccccc1)C2=O`, the T/C runs as follows: (dose: 0.78 mg/kg/injection, schedule: Q01DX009 (ip), vehicle: water) 111 % of control; (dose: 1.33 mg/kg/injection, schedule: Q01DX009 (ip), vehicle: water) 115 % of control; (dose: 2.0 mg/kg/injection, schedule: Q01DX009 (ip), vehicle: water) 119 % of control; (dose: 3.0 mg/kg/injection, schedule: Q01DX009 (ip), vehicle: water) 121 % of control.
For `NNC(=O)c1cnn(-c2ccccc2)c1N`, the T/C by setting is: (dose: 15.0 mg/kg/injection, schedule: Q01DX005 (ip), vehicle: saline with Tween-80) 99 % of control; (dose: 30.0 mg/kg/injection, schedule: Q01DX005 (ip), vehicle: saline with Tween-80) 93 % of control; under setting [1], 99 % of control and 94 % of control.
As for `C#CCSc1nc2ccccc2s1`, the T/C by setting is: under setting [2], 98 % of control; under setting [3], 109 % of control.
Consider `Cc1ccc(S(=O)(=O)CC(=O)CC(=O)C(=O)NC2C3CC4CC(C3)CC2C4)cc1` (stereo not drawn), for which the T/C was 98 % of control under setting [4], 90 % of control under setting [5] and 90 % of control under setting [6].
Turning to `NCC=C1C2CC3CC(C2)CC1C3`, the T/C is 105 % of control and 107 % of control and 120 % of control (dose: 6.25 mg/kg/injection, schedule: Q01DX009 (ip), vehicle: saline); 107 % of control (2×) and 117 % of control (dose: 12.5 mg/kg/injection, schedule: Q01DX009 (ip), vehicle: saline); 111 % of control and 94 % of control (dose: 25.0 mg/kg/injection, schedule: Q01DX009 (ip), vehicle: saline); 103 % of control (dose: 50.0 mg/kg/injection, schedule: Q01DX009 (ip), vehicle: saline).
`CC(C)(C)c1ccc(C(=O)Nc2ccc(Cl)cc2Oc2ccccc2)cc1`: the T/C is 93 % of control under setting [2], 97 % of control under setting [3] and 86 % of control under setting [7].
Regarding `COC(=O)c1cc(-c2ccccc2Cl)n2c(N)nnc2n1`, the T/C under setting [1] is 118 % of control; the T/C (dose: 120.0 mg/kg/injection, schedule: Q01DX005 (ip), vehicle: saline with Tween-80) is 105 % of control; the T/C (dose: 240.0 mg/kg/injection, schedule: Q01DX005 (ip), vehicle: saline with Tween-80) was 101 % of control.
Regarding `ClCc1nsc(Cl)n1`, the T/C is 93 % of control under setting [8]; 98 % of control under setting [9]; 104 % of control and 93 % of control (dose: 50.0 mg/kg/injection, schedule: Q01DX005 (ip), vehicle: Klucel (hydroxypropylcellulose) (HPC)).
For `CCn1c2ccccc2c2ccc(N=Cc3ccc([N+](=O)[O-])cc3)cc21`, the T/C runs as follows: under setting [2], 99 % of control; under setting [3], 100 % of control; under setting [7], 99 % of control.
`Cc1ccc(C)c2c3c([nH]c12)-c1ccccc1CC3`: the T/C is 103 % of control (dose: 50.0 mg/kg/injection, schedule: Q01DX009 (ip), vehicle: saline with Tween-80); 107 % of control (dose: 100.0 mg/kg/injection, schedule: Q01DX009 (ip), vehicle: saline with Tween-80); 103 % of control (dose: 200.0 mg/kg/injection, schedule: Q01DX009 (ip), vehicle: saline with Tween-80).
As for `O=c1ncc2ccc([N+](=O)[O-])cc2[nH]1`, the T/C is, setting by setting: under setting [8], 108 % of control and 95 % of control and 98 % of control; under setting [9], 102 % of control and 94 % of control and 98 % of control; (dose: 100.0 mg/kg/injection, schedule: Q01DX005 (ip), vehicle: Klucel (hydroxypropylcellulose) (HPC)) 112 % of control.
In the case of `N#CC1CCN(Cc2ccccc2)C(C#N)C1` (stereo not drawn), the T/C is 105 % of control (dose: 15.0 mg/kg/injection, schedule: Q01DX005 (ip), vehicle: Klucel (hydroxypropylcellulose) (HPC)); 106 % of control (dose: 30.0 mg/kg/injection, schedule: Q01DX005 (ip), vehicle: Klucel (hydroxypropylcellulose) (HPC)); 102 % of control and 106 % of control (dose: 60.0 mg/kg/injection, schedule: Q01DX005 (ip), vehicle: Klucel (hydroxypropylcellulose) (HPC)).
As to `C=C(C)C1CC2=C(C(=O)OC)C=C(O2)C(C(=C)C)C2OC(=O)/C(=C\C1O)C2O` (stereo not drawn), the T/C reads like this: (dose: 4.0 mg/kg/injection, schedule: Q01DX005 (ip), vehicle: saline + alcohol) 103 % of control; (dose: 8.0 mg/kg/injection, schedule: Q01DX005 (ip), vehicle: saline + alcohol) 103 % of control; (dose: 16.0 mg/kg/injection, schedule: Q01DX005 (ip), vehicle: saline + alcohol) 99 % of control; (dose: 32.0 mg/kg/injection, schedule: Q01DX005 (ip), vehicle: saline + alcohol) 99 % of control; (dose: 64.0 mg/kg/injection, schedule: Q01DX005 (ip), vehicle: saline + alcohol) 101 % of control.
On to `COc1ccc(CCNC(=O)C2CCCOC2C(Cl)Cl)cc1OC` (stereo not drawn), for which the T/C is 97 % of control under setting [4], 101 % of control under setting [5] and 93 % of control under setting [6].
For `CC(CN=C(CC(=O)c1ccc(Br)cc1)c1ccccc1)N=C(CC(=O)c1ccc(Br)cc1)c1ccccc1` (stereo not drawn), the T/C was 90 % of control (dose: 100.0 mg/kg/injection, schedule: Q04DX003 (ip), vehicle: saline with Tween-80); 87 % of control (dose: 200.0 mg/kg/injection, schedule: Q04DX003 (ip), vehicle: saline with Tween-80); 87 % of control (dose: 400.0 mg/kg/injection, schedule: Q04DX003 (ip), vehicle: saline with Tween-80).
As to `O=C1CC=C2C3CC4N(CCC45c4ccccc4N1C25)C/C3=C\CBr` (stereo not drawn), the T/C is, setting by setting: (dose: 1.87 mg/kg/injection, schedule: Q01DX005 (ip), vehicle: Klucel (hydroxypropylcellulose) (HPC)) 105 % of control; (dose: 3.75 mg/kg/injection, schedule: Q01DX005 (ip), vehicle: Klucel (hydroxypropylcellulose) (HPC)) 103 % of control; (dose: 7.5 mg/kg/injection, schedule: Q01DX005 (ip), vehicle: Klucel (hydroxypropylcellulose) (HPC)) 101 % of control and 105 % of control.
Consider `Oc1c(Br)cc(Br)cc1/C=N/NC(=S)N/N=C/c1cc(Br)cc(Br)c1O`, for which the T/C was 97 % of control (dose: 12.5 mg/kg/injection, schedule: Q01DX009 (ip), vehicle: distilled water + Tween-80); 103 % of control and 108 % of control (dose: 25.0 mg/kg/injection, schedule: Q01DX009 (ip), vehicle: distilled water + Tween-80); 118 % of control (dose: 50.0 mg/kg/injection, schedule: Q01DX009 (ip), vehicle: distilled water + Tween-80).
In the case of `Cn1c(-c2ccc(Br)cc2)cc2[nH]c(=S)nc(N)c2c1=O`, the T/C was 105 % of control (dose: 25.0 mg/kg/injection, schedule: Q01DX005 (ip), vehicle: saline with Tween-80); 100 % of control under setting [4]; 102 % of control under setting [5]; 96 % of control under setting [6].
For `[N-]=[N+]=CC(=O)CCC(=O)C=[N+]=[N-]`, the T/C by setting is: (dose: 0.75 mg/kg/injection, schedule: Q01DX009 (ip), vehicle: other) 123 % of control; (dose: 0.78 mg/kg/injection, schedule: Q01DX007 (ip), vehicle: DMSO) 101 % of control; (dose: 1.56 mg/kg/injection, schedule: Q01DX007 (ip), vehicle: DMSO) 117 % of control; (dose: 3.0 mg/kg/injection, schedule: Q01DX009 (ip), vehicle: other) 170 % of control; (dose: 6.0 mg/kg/injection, schedule: Q01DX009 (ip), vehicle: other) 104 % of control; (dose: 6.25 mg/kg/injection, schedule: Q01DX007 (ip), vehicle: DMSO) 158 % of control. The T/C (dose: 12.5 mg/kg/injection, schedule: Q01DX007 (ip), vehicle: DMSO) is 93 % of control and the T/C (dose: 25.0 mg/kg/injection, schedule: Q01DX007 (ip), vehicle: DMSO) is 93 % of control.
